How the values were obtained:
rat A2A receptors = target: T1, rat A2A receptors (Rattus norvegicus, UniProt P30543); assay: Displacement of [3H]CGS 21680 binding to A2A receptors in rat striatal membranes; conditions: for Ki: read-out: Ki rA2A
T1 construct: to A2A receptors from rat striatal membranes; from tissue; host or cells: rat striatal membranes
Experimental: (§1) All nonradioactive compounds were initially dissolved in DMSO and diluted with buffer to the final concentration, where the amount of DMSO never exceeded 2%. Incubations were terminated by rapid filtration over Whatman GF/B filters using a Brandell cell harvester. The tubes were rinsed three times with 3 mL buffer each.
(§2) At least six different concentrations of competitor, spanning 3 orders of magnitude adjusted appropriately for the IC50 value of each compound, were used. IC50 values, calculated with the nonlinear regression method implemented in Graph-Pad Prism (San Diego, CA) were converted to apparent Ki values as described by [Linden [1982]]. Hill coefficients of the tested compounds were in the range of 0.8–1.1.
(§3) At A2B receptors, two radioligand binding assays (Table 1) were used. Ki values of xanthine derivatives were determined in displacement of binding of the non-selective radioligands […], 8 (4-(2-[7-amino-2-{furyl}{1,2,4}triazolo{2,3-a}{1,3,5}tr nzyl)-8-phenyloxyacetate-1-propyl-xanthine), at human A2B receptors expressed in HEK-293 cell membranes [[Linden and Jacobson, 1998]]. In order to evaluate selectivity, selected derivatives were subjected to standard binding assays at A1, A2A, and A3 receptors. The initial screening utilized rat brain A1/A2A receptors (with radioligands [^3H]R-PIA and [^3H]CGS-21680), and selected compounds were examined at the recombinant human subtypes (Table 1), using [^3H]CPX ([^3H]8-cyclopentyl-1,3-dipropylxanthine) and ^125I-ZM 241385, ^125I-4-(2-[7-amino-2-[2-furyl][1,2,4]triazolo[2,3-a][1,3,5]triazin-5-yl-amino]ethyl)phenol) [[Palmer et al., 1996]].

human A3 receptors = target: T2, human A3 receptors (Homo sapiens, UniProt P0DMS8); assay: Binding at recombinant human A3 receptors expressed in HEK-293 cells vs [125I]ABA; conditions: recombinant human A3 in HEK-293 cells, read-out: Ki hA3
T2 construct: expressed in transfected cells; host or cells: HEK-293
T2 sequence (P0DMS8 1-318): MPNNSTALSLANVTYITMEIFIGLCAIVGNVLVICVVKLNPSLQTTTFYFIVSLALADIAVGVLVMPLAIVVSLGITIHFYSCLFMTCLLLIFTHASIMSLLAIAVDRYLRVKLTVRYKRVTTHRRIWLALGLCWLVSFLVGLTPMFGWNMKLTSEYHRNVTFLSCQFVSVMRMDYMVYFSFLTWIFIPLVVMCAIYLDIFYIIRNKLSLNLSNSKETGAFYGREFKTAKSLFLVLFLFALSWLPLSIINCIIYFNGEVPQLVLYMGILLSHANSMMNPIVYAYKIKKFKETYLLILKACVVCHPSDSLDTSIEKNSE
Experimental: as §1, §2, §3

human A1 receptors = target: T3, human A1 receptors (Homo sapiens, UniProt P30542); assay: Binding at recombinant human A1 receptors expressed in HEK-293 cells vs [3H]CPX; conditions: recombinant human A1 in HEK-293 cells
T3 construct: expressed in transfected cells; host or cells: HEK-293
T3 sequence (P30542 1-326): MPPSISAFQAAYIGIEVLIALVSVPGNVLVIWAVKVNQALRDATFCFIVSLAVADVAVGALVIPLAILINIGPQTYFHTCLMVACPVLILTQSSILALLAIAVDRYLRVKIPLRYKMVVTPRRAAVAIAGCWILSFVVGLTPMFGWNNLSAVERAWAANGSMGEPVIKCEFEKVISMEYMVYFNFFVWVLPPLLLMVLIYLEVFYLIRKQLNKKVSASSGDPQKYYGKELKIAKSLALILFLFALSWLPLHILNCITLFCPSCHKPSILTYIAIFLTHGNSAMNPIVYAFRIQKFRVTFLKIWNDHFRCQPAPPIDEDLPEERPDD
Experimental: as §1, §2, §3

T1 sequence (P30543 whole entry): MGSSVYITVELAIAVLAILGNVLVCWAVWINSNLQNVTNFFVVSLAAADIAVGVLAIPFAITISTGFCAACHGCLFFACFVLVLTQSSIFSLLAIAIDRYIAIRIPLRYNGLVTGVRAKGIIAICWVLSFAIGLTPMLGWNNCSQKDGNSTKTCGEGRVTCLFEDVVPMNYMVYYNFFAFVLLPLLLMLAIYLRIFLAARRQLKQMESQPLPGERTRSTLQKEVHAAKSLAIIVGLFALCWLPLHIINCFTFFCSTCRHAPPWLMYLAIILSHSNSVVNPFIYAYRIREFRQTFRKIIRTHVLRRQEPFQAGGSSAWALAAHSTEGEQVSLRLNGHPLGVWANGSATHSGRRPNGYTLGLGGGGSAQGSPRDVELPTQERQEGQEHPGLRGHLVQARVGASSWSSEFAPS

| SMILES | Ki (rat A2A receptors) | Ki (human A3 receptors) | Ki (human A1 receptors) | % displacement rA2A (rat A2A receptors; rat striatal membranes, [3H]CGS 21680, at 10^−4) |
| --- | --- | --- | --- | --- |
| CCCn1c(=O)c2[nH]c(-c3ccc(OCC(=O)OCC)cc3)nc2n(CCC)c1=O [Compound 4b] | 128 ± 15 nM | 48.5 ± 0.8 nM | 203 nM | – |
| CCCn1c(=O)[nH]c(=O)c2[nH]c(-c3ccc(OCC(=O)NN4C(=O)C(C)=C(C)C4=O)cc3)nc21 [Compound 15, 8-[4-[(Carboxymethyl)oxy]phenyl]-1H-3-(n-propyl)xanthine N,N-[(1,2-Dimethyl)maleyl]hydrazide] | – | 14200 nM | 8080 nM | 36 ± 4% |
| CCCn1c(=O)c2[nH]c(-c3ccc(OCC(=O)NN4C(=O)C(C)=C(C)C4=O)cc3)nc2n(CCC)c1=O [Compound 14, 8-[4-[(Carboxymethyl)oxy]phenyl]-1,3-di-(n-propyl)xanthine N,N-[(1,2-Dimethyl)maleyl]hydrazide] | 126 ± 41 nM | 670 ± 154 nM | 3030 nM | – |
| CCCn1c(=O)c2[nH]c(-c3ccc(OCC(=O)NN4C(=O)c5ccccc5C4=O)cc3)nc2n(CCC)c1=O [Compound 21, 8-[4-[(Carboxymethyl)oxy]phenyl]-1,3-di-(n-propyl)xanthine N,N-Phthaloylhydrazide] | 392 ± 117 nM | 147 ± 21 nM | 210 nM | – |
| CCCn1c(=O)c2[nH]c(-c3ccc(OCC(=O)NNC(C)=O)cc3)nc2n(CCC)c1=O [Compound 4e, 8-[4-[(Carboxymethyl)oxy]phenyl]-1,3-di-(n-propyl)xanthine N-Acetylhydrazide] | 227 ± 64 nM | 30.9 ± 8.2 nM | 125 nM | – |
| CCCn1c(=O)c2[nH]c(-c3ccc(OCC(=O)NNC(=O)CCC(=O)O)cc3)nc2n(CCC)c1=O [Compound 9, 8-[4-[(Carboxymethyl)oxy]phenyl]-1,3-di-(n-propyl)xanthine N-[(3-Carboxy)-n-propionyl]hydrazide] | 174 ± 32 nM | 173 ± 27 nM | 219 nM | – |

Source: PMC9196953 (Drug development research, 1999)
